In general, IC50 refers to the concentration needed to halve the response being measured.

Sequence of IgE-Tb / FcεRIα-Y131A-AF488 (P01854 1-427 limits assumed, stated change not applied): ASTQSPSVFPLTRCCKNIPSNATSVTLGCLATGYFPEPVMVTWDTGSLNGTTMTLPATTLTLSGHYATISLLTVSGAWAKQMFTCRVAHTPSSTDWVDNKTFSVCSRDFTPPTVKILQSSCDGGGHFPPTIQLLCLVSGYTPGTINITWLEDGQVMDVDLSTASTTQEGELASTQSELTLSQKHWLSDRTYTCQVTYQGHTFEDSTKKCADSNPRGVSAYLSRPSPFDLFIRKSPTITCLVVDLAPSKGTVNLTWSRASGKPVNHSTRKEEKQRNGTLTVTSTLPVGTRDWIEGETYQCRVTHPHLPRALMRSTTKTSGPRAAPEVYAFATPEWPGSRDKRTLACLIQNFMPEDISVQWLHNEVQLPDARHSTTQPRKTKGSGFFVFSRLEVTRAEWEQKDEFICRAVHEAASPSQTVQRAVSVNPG

The target in this test is IgE-Tb / FcεRIα-Y131A-AF488 (Homo sapiens, UniProt P01854). Briefly: IgE-Tb / FcεRIα-Y131A-AF488 FRET assay (protocol for examples 1 to 233). The class given is binding. Conditions: examples 1 to 233: 5 nM IgE-Tb, 25 nM FcεRIα-Y131A-AF488, incubated 2 hours at room temperature; read-out: Y131A FRET IC50 range. A digest of the protocol:
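TR-FRET displacement with 5 nM IgE-Tb and 25 nM FcεRIα-Y131A-AF488 (final), 10-point 3-fold compound dilutions from typically 10 μM top, 2% DMSO, 2 h at room temperature. Excitation 330 nm, 520/495 nm emission ratio; MIN set with 200 nM unlabelled FcεRIα. IC50 from four-parameter logistic fit of percent inhibition.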
On to `O=C(NCC1CC1)c1c(NC(=O)C2CC2)sc2c1CC(C(=O)N1CC(O)C1)CC2` (centres unmarked) [Example 55, 2-(Cyclopropanecarbonylamino)-N-(cyclopropylmethyl)-5-(3-hydroxyazetidine-1-carbonyl)-4,5,6,7-tetrahydrobenzothiophene-3-carboxamide], for which the IC50 lay in the range of 10 to 50 µM.
Turning to `O=C(NCC1CC1)c1c(NC(=O)C2CC2)sc2c1CC(C(=O)N1CCS(=O)(=O)CC1)CC2` (centres unmarked) [Example 56, 2-(Cyclopropanecarbonylamino)-N-(cyclopropylmethyl)-5-(1,1-dioxo-1,4-thiazinane-4-carbonyl)-4,5,6,7-tetrahydrobenzothiophene-3-carboxamide], the IC50 is 10 to 50 µM.
The result for `O=C(NCC1CC1)c1c(NC(=O)C2CC2)sc2c1CC(C(=O)NCCc1ccc(O)cc1)CC2` (centres unmarked) [Example 57, 2-(Cyclopropanecarbonylamino)-N3-(cyclopropylmethyl)-N5-[2-(4-hydroxyphenyl)ethyl]-4,5,6,7-tetrahydrobenzothiophene-3,5-dicarboxamide] reads below 1 µM.
For `O=C(NCC1CC1)c1c(NC(=O)C2CC2)sc2c1CC(C=NO)CC2` (centres unmarked) [Example 58, 2-(cyclopropanecarbonylamino)-N-(cyclopropylmethyl)-5-(hydroxyiminomethyl)-4,5,6,7-tetrahydrobenzothiophene-3-carboxamide] the value was 1 to 10 µM.
For `CCn1cnnc1NCC1CCc2sc(NC(=O)C3CC3)c(C(=O)NCC3CC3)c2C1` (centres unmarked) [Example 59, 2-(Cyclopropanecarbonylamino)-N-(cyclopropylmethyl)-5-[[(4-ethyl-1,2,4-triazol-3-yl)amino]methyl]-4,5,6,7-tetrahydrobenzothiophene-3-carboxamide] the value was below 1 µM; for `Cc1ccc(NCC2(O)CCc3sc(NC(=O)C4CC4)c(C(=O)NCC4CC4)c3C2)cc1` (centres unmarked) [Example 60, 2-(Cyclopropanecarbonylamino)-N-(cyclopropylmethyl)-5-hydroxy-5-[(4-methylanilino)methyl]-6,7-dihydro-4H-benzothiophene-3-carboxamide], 1 to 10 µM; for `Cc1ccc(N2CC3(CCc4sc(NC(=O)C5CC5)c(C(=O)NCC5CC5)c4C3)OC2=O)cc1` (centres unmarked) [Example 61, 2-(Cyclopropanecarbonylamino)-N-(cyclopropylmethyl)-2′-oxo-3′-(p-tolyl)spiro[6,7-dihydro-4H-benzothiophene-5,5′-oxazolidine]-3-carboxamide], below 1 µM.
Regarding `Nc1ncccc1C1CCc2sc(NC(=O)C3CC3)c(C(=O)NCC3CC3)c2C1` (centres unmarked) [Example 62, 5-(2-Amino-3-pyridyl)-2-(cyclopropanecarbonylamino)-N-(cyclopropylmethyl)-4,5,6,7-tetrahydrobenzothiophene-3-carboxamide], the IC50 is below 1 µM.
For `Cc1ccc(-c2cnc(C3CCc4sc(NC(=O)C5CC5)c(C(=O)NCC5CC5)c4C3)[nH]2)cc1` (centres unmarked) [Example 63, 2-(Cyclopropanecarbonylamino)-N-(cyclopropylmethyl)-5-[5-(p-tolyl)-1H-imidazol-2-yl]-4,5,6,7-tetrahydrobenzothiophene-3-carboxamide] the value was below 1 µM; for `N#CC1CCc2sc(NC(=O)C3CC3)c(C(=O)NCC3CC3)c2C1` (centres unmarked) [Example 64, 5-Cyano-2-(cyclopropanecarbonylamino)-N-(cyclopropylmethyl)-4,5,6,7-tetrahydrobenzothiophene-3-carboxamide], 1 to 10 µM.
As to `N#CC1CCCc2c1sc(NC(=O)C1CC1)c2C(=O)NCC1CC1` (centres unmarked) [Example 65, 7-Cyano-2-(cyclopropanecarbonylamino)-N-(cyclopropylmethyl)-4,5,6,7-tetrahydrobenzothiophene-3-carboxamide], the IC50 was 1 to 10 µM.
For `O=C(NCC1CC1)c1c(NC(=O)C2CC2)sc2c1C[C@H](C(F)(F)F)CC2` [Example 66, (5R)-2-(Cyclopropanecarbonylamino)-N-(cyclopropylmethyl)-5-(trifluoromethyl)-4,5,6,7-tetrahydrobenzothiophene-3-carboxamide] the value was 1 to 10 µM; for `O=C(NCC1CC1)c1c(NC(=O)C2CC2)sc2c1C[C@@H](C(F)(F)F)CC2` [Example 67, (5S)-2-(Cyclopropanecarbonylamino)-N-(cyclopropylmethyl)-5-(trifluoromethyl)-4,5,6,7-tetrahydrobenzothiophene-3-carboxamide], below 1 µM.
In the case of `Cc1coc(C2CCc3sc(NC(=O)C4CC4)c(C(=O)NCC4CC4)c3C2)n1` (centres unmarked) [Example 68, 2-(Cyclopropanecarbonylamino)-N-(cyclopropylmethyl)-5-(4-methyloxazol-2-yl)-4,5,6,7-tetrahydrobenzothiophene-3-carboxamide], the IC50 lay in the range of 1 to 10 µM.
For `NCC1(O)CCc2sc(NC(=O)C3CC3)c(C(=O)NCC3CC3)c2C1` (centres unmarked) [Example 69, 5-(Aminomethyl)-2-(cyclopropanecarbonylamino)-N-(cyclopropylmethyl)-5-hydroxy-6,7-dihydro-4H-benzothiophene-3-carboxamide] the value was 10 to 50 µM.
Regarding `Cc1ccc(NC(=O)NCC2(O)CCc3sc(NC(=O)C4CC4)c(C(=O)NCC4CC4)c3C2)cc1` (centres unmarked) [Example 70, 2-(Cyclopropanecarbonylamino)-N-(cyclopropylmethyl)-5-hydroxy-5-[(p-tolylcarbamoylamino)methyl]-6,7-dihydro-4H-benzothiophene-3-carboxamide], the IC50 lay within 1 to 10 µM.
The result for `Cc1noc(C2CCc3sc(NC(=O)C4CC4)c(C(=O)NCC4CC4)c3C2)n1` (centres unmarked) [Example 71, 2-(Cyclopropanecarbonylamino)-N-(cyclopropylmethyl)-5-(3-methyl-1,2,4-oxadiazol-5-yl)-4,5,6,7-tetrahydrobenzothiophene-3-carboxamide] reads 1 to 10 µM; that for `Cc1nnc(C2CCc3sc(NC(=O)C4CC4)c(C(=O)NCC4CC4)c3C2)o1` (centres unmarked) [Example 72, 2-(Cyclopropanecarbonylamino)-N-(cyclopropylmethyl)-5-(5-methyl-1,3,4-oxadiazol-2-yl)-4,5,6,7-tetrahydrobenzothiophene-3-carboxamide], 1 to 10 µM; that for `O=C(NCC1CC1)c1c(NC(=O)C2CC2)sc2c1CC(C(=O)N1CCCC1)CC2` (centres unmarked) [Example 73, 2-(Cyclopropanecarbonylamino)-N-(cyclopropylmethyl)-5-(pyrrolidine-1-carbonyl)-4,5,6,7-tetrahydrobenzothiophene-3-carboxamide], 1 to 10 µM.
For `CC1(O)CCc2sc(NC(=O)C3CC3)c(C(=O)NCC3CC3)c2C1` (centres unmarked) [Example 74, 2-(Cyclopropanecarbonylamino)-N-(cyclopropylmethyl)-5-hydroxy-5-methyl-6,7-dihydro-4H-benzothiophene-3-carboxamide] the value was 10 to 50 µM; for `O=C(Nc1sc2c(c1C(=O)N1CC[C@@H](F)C1)CCCC2)C1CC1` [Example 75, N-[3-[(3R)-3-Fluoropyrrolidine-1-carbonyl]-4,5,6,7-tetrahydrobenzothiophen-2-yl]cyclopropanecarboxamide], 1 to 10 µM; for `O=C(Nc1sc2c(c1C(=O)N1CC(F)C1)CCCC2)C1CC1` [Example 76, N-[3-(3-Fluoroazetidine-1-carbonyl)-4,5,6,7-tetrahydrobenzothiophen-2-yl]cyclopropanecarboxamide], 1 to 10 µM.
For `COC1CN(C(=O)c2c(NC(=O)C3CC3)sc3c2CCCC3)C1` [Example 77], the IC50 was in the range of 1 to 10 µM.
For `O=C(Nc1sc2c(c1C(=O)N1CCCCC1)CCCC2)C1CC1` [Example 78, N-[3-(Piperidine-1-carbonyl)-4,5,6,7-tetrahydrobenzothiophen-2-yl]cyclopropanecarboxamide] the value was 1 to 10 µM.
The result for `CNC(=O)c1c(NC(=O)C2CC2)sc2c1CCCC2O` (centres unmarked) [Example 79, 2-(Cyclopropanecarbonylamino)-7-hydroxy-N-methyl-4,5,6,7-tetrahydrobenzothiophene-3-carboxamide] reads 10 to 50 µM; that for `CC1Cc2c(sc(NC(=O)C3CC3)c2C(=O)NCC2CC2)C(C)C1` (centres unmarked) [Example 81, 2-(Cyclopropanecarbonylamino)-N-(cyclopropylmethyl)-5,7-dimethyl-4,5,6,7-tetrahydrobenzothiophene-3-carboxamide], 1 to 10 µM; that for `CC1CCc2sc(NC(=O)C3CC3)c(C(=O)NCC3CC3)c2C1` (centres unmarked) [Example 82, 2-(Cyclopropanecarbonylamino)-N-(cyclopropylmethyl)-5-methyl-4,5,6,7-tetrahydrobenzothiophene-3-carboxamide], 1 to 10 µM.
For `CC1(C)CCc2sc(NC(=O)C3CC3)c(C(=O)NCC3CC3)c2C1` [Example 84, 2-(Cyclopropanecarbonylamino)-N-(cyclopropylmethyl)-5,5-dimethyl-6,7-dihydro-4H-benzothiophene-3-carboxamide] the value was 1 to 10 µM; for `CC1CC(=O)c2sc(NC(=O)C3CC3)c(C(=O)NCC3CC3)c2C1` (centres unmarked) [Example 85, 2-(Cyclopropanecarbonylamino)-N-(cyclopropylmethyl)-5-methyl-7-oxo-5,6-dihydro-4H-benzothiophene-3-carboxamide], 1 to 10 µM.
In the case of `O=C(NCC1CC1)c1c(NC(=O)C2CC2)sc2c1CC1(CC2)OCCO1` [Example 86, 2′-(Cyclopropanecarbonylamino)-N-(cyclopropylmethyl)spiro[1,3-dioxolane-2,5′-6,7-dihydro-4H-benzothiophene]-3′-carboxamide], the IC50 is below 1 µM.
Take `CC(C)C(=O)Nc1sc2c(c1C(=O)NCC1CC1)CCCC2` [Example 87, N-(Cyclopropylmethyl)-2-(2-methylpropanoylamino)-4,5,6,7-tetrahydrobenzothiophene-3-carboxamide]: the IC50 was 10 to 50 µM.
As for `O=C(NCC1CC1)c1c(NC(=O)C2CCC2)sc2c1CCCC2` [Example 88, 2-(Cyclobutanecarbonylamino)-N-(cyclopropylmethyl)-4,5,6,7-tetrahydrobenzothiophene-3-carboxamide], the IC50 lay within 10 to 50 µM.

(Values after patent US12018021B2 (UCB Biopharma SRL, priority 2018, dated 2024).)
